According to patent publication US9334263B2, “Compositions useful for treating disorders related to kit” (BLUEPRINT MEDICINES CORPORATION, priority 2013, dated 2016):

Legend:
D816V Kit = biological target: T1, D816V Kit (Homo sapiens, UniProt P10721, D816V); assay: Kit D816V assay at Km (Caliper electrophoretic mobility shift); type: biochemical; details: 15 uM ATP, 25 C, 90 minutes
T1 construct: purchased Carna Bioscience 08-156
Outline: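 Read-out is the ratio of phosphorylated to unphosphorylated fluorescent peptide, resolved by mobility shift on a Caliper EZ Reader 2.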

wild type Kit = biological target: T2, wild type Kit (Homo sapiens, UniProt P10721); assay: Kit wild type assay at Km (Caliper electrophoretic mobility shift); type: biochemical; details: 400 uM ATP, 25 C, 90 minutes; read-out: WT KIT
T2 construct: purchased Carna Bioscience 08-156
T2 sequence (P10721 26-976): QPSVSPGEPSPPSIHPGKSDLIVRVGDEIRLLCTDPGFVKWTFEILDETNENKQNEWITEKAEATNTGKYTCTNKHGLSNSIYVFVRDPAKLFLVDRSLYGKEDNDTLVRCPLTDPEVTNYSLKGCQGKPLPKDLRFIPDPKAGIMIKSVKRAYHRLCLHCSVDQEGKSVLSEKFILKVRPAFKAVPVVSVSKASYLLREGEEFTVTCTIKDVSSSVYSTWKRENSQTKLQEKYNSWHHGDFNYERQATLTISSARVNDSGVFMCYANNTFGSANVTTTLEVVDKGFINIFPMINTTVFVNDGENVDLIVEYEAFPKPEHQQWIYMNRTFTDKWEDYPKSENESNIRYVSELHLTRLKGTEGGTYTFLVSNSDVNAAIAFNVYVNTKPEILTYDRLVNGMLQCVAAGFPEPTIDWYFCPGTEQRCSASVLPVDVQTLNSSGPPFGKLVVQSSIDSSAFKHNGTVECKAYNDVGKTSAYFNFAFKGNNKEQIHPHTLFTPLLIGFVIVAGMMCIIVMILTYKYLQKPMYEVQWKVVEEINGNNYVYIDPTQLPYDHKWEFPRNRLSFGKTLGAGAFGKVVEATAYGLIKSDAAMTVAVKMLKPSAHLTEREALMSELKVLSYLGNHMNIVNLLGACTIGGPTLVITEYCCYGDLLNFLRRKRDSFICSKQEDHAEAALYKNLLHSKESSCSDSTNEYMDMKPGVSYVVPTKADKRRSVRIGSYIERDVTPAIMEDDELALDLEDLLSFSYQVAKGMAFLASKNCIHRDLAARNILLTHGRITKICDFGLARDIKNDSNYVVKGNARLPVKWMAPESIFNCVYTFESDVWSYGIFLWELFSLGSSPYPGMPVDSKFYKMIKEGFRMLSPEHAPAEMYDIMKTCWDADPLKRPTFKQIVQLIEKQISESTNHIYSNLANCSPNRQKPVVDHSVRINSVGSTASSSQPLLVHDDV
Protocol: In order to assess the activity of chemical compounds against the relevant kinase of interest, the Caliper LifeSciences electrophoretic mobility shift technology platform is used. Fluorescently labeled substrate peptide is incubated in the presence of kinase and ATP so that a […] proportion of the peptide is phosphorylated. At the end of the reaction, the mix of phosphorylated (product) and non-phosphorylated (substrate) peptides are passed through the microfluidic system of the Caliper EZ Reader 2, under an applied potential difference. The presence of the phosphate group on the product peptide provides a difference in mass and charge between those of the substrate peptide, resulting in a separation of the substrate and product pools in the sample. As the pools pass a LEDS within the instrument, these pools are detected and resolved as separate peaks. The ratio between these peaks therefore reflects the activity of the chemical matter at that concentration in that well, under those conditions.
The reaction was stopped by the addition of 70 ul of Stop buffer (100 mM HEPES pH 7.5, 0.015% Brij 35, 35 mM EDTA and 0.2% of Coating Reagent 3 (Caliper Lifesciences)). The plate was then read on a Caliper EZReader 2 (protocol settings: −1.9 psi, upstream voltage −700, downstream voltage −3000, post sample sip 35 s).

[1] = biological target: T3, Kit D816V (HMC1.2 cells, Kit V560G and D816V) (Homo sapiens, UniProt P10721, D816V/V560G); assay: HMC1.2 autophosphorylation assay (AlphaLISA, phospho-Y719 c-Kit); type: cell-based; details: Kit autophosphorylation at tyrosine 719, 90 minutes, read-out: Cellular Activity
T3 construct: endogenous in cells; host or cells: HMC1.2 cells
T3 sequence (P10721 26-976 V560G/D816V): as the sequence (P10721 26-976) above, with V535G, D791V counted along it
Outline: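 AlphaScreen signal comes from lysed HMC1.2 cells incubated with phospho-Y719 and total c-Kit antibodies (15 nM final), acceptor beads and then streptavidin donor beads, 2 h each at room temperature. Beforehand, cells deprived of serum overnight received compound for 90 min as a 10-point series, 25 uM–95.4 pM, 0.25% DMSO.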

T1 sequence (P10721 26-976 D816V): as the sequence (P10721 26-976) above, with D791V counted along it

Row | SMILES | IC50 (D816V Kit) | IC50 (wild type Kit) | IC50 [1]
1 | CC(O)c1cccc(Nc2ncnc(N3CCN(c4ncc(Cc5ccccc5)cn4)CC3)n2)c1 (stereo not drawn) [Compound 26] | 1.01 to 10 nM | 11 to 100 nM | 100 to 1000 nM
2 | c1ccc(Cc2cnc(N3CCN(c4ncnc(Nc5cccc(N6CCOCC6)c5)n4)CC3)nc2)cc1 [Compound 104] | 1.01 to 10 nM | 11 to 100 nM | 100 to 1000 nM
3 | CN(C)CCn1cc(Nc2ncnc(N3CCN(c4ncc(Cc5ccccc5)cn4)CC3)n2)cn1 [Compound 60] | < 1 nM | 11 to 100 nM | 10 to 100 nM
4 | c1ccc(Cc2cnc(N3CCN(c4ncnc(Nc5cc[nH]n5)n4)CC3)nc2)cc1 [Compound 5] | 1.01 to 10 nM | 100 to 1000 nM | 1000 to 10000 nM
5 | COCCn1cc(Nc2ncnc(N3CCN(c4ncc(Cc5ccccc5)cn4)CC3)n2)cn1 [Compound 31] | < 1 nM | < 10 nM | 10 to 100 nM
6 | CP(C)(=O)c1ccc(Nc2ncnc(N3CCN(c4ncc(Cc5ccccc5)cn4)CC3)n2)cc1 [Compound 89] | < 1 nM | 11 to 100 nM | 100 to 1000 nM
7 | Oc1ccccc1Cc1cnc(N2CCN(c3ncnc(Nc4ccc5c(c4)CNCC5)n3)CC2)nc1 [Compound 115] | < 1 nM | < 10 nM | 10 to 100 nM
8 | c1ccc(Cc2cnc(N3CCN(c4ncnc(Nc5cnn(CC6CNC6)c5)n4)CC3)nc2)cc1 [Compound 51] | < 1 nM | 11 to 100 nM | 10 to 100 nM
9 | c1ccc(Cc2cnc(N3CCN(c4ncnc(Nc5cnn(CC6CCOCC6)c5)n4)CC3)nc2)cc1 [Compound 118] | < 1 nM | < 10 nM | 10 to 100 nM
10 | c1ccc(Cc2cnc(N3CCN(c4ncnc(Nc5ccc6c(c5)CNCCO6)n4)CC3)nc2)cc1 [Compound 76] | < 1 nM | < 10 nM | 10 to 100 nM
11 | OCc1ccc(Nc2ncnc(N3CCN(c4ncc(Cc5ccccc5)cn4)CC3)n2)cc1 [Compound 16] | < 1 nM | 11 to 100 nM | 100 to 1000 nM
12 | CC(C)(O)c1cccc(Nc2ncnc(N3CCN(c4ncc(Cc5ccccc5)cn4)CC3)n2)c1 [Compound 50] | 1.01 to 10 nM | 11 to 100 nM | 1000 to 10000 nM
13 | C[C@@H]1CN(c2ncnc(Nc3ccc(P(C)(C)=O)cc3)n2)CCN1c1ncc(Cc2ccccc2)cn1 [Compound 128] | 1.01 to 10 nM | 11 to 100 nM | 100 to 1000 nM
14 | c1ccc(Cc2cnc(N3CCN(c4ncnc(Nc5ccc6c(c5)CNCC6)n4)CC3)nc2)cc1 [Compound 41] | < 1 nM | < 10 nM | 10 to 100 nM
15 | c1ccc(Cc2cnc(N3CCN(c4ncnc(Nc5ccc6c(c5)NCCC6)n4)CC3)nc2)cc1 [Compound 42] | 1.01 to 10 nM | 11 to 100 nM | 10 to 100 nM
16 | CN(C)Cc1cccc(Nc2ncnc(N3CCN(c4ncc(Cc5ccccc5)cn4)CC3)n2)c1 [Compound 49] | < 1 nM | 11 to 100 nM | 10 to 100 nM
17 | CC(=O)c1cccc(Nc2ncnc(N3CCN(c4ncc(Cc5ccccc5)cn4)CC3)n2)c1 [Compound 22] | 1.01 to 10 nM | 100 to 1000 nM | 100 to 1000 nM
18 | c1ccc(Cc2cnc(N3CCN(c4ncnc(Nc5ccccc5)n4)CC3)nc2)cc1 [Compound 7] | 1.01 to 10 nM | 11 to 100 nM | 1000 to 10000 nM
19 | CS(=O)(=O)c1ccc(Nc2ncnc(N3CCN(c4ncc(Cc5ccccc5)cn4)CC3)n2)cc1 [Compound 94] | 1.01 to 10 nM | 11 to 100 nM | 10 to 100 nM
20 | CC(=O)NCc1cccc(Nc2ncnc(N3CCN(c4ncc(Cc5ccccc5)cn4)CC3)n2)c1 [Compound 74] | < 1 nM | 11 to 100 nM | 10 to 100 nM
21 | Nc1cncc(Nc2ncnc(N3CCN(c4ncc(Cc5ccccc5)cn4)CC3)n2)c1 [Compound 13] | < 1 nM | < 10 nM | 10 to 100 nM
22 | NS(=O)(=O)c1cccc(Nc2ncnc(N3CCN(c4ncc(Cc5ccccc5)cn4)CC3)n2)c1 [Compound 95] | < 1 nM | 11 to 100 nM | 1000 to 10000 nM
23 | c1ccc(Cc2cnc(N3CCN(c4ncnc(Nc5cnn(CC6CCOC6)c5)n4)CC3)nc2)cc1 (stereo not drawn) [Compound 86] | < 1 nM | 11 to 100 nM | 10 to 100 nM

The remaining lines, values ahead:

Row | IC50 (D816V Kit) | IC50 (wild type Kit) | IC50 [1] | SMILES
24 | < 1 nM | < 10 nM | < 10 nM | CN1CCC[C@H]1COc1ccc(Nc2ncnc(N3CCN(c4ncc(Cc5ccccc5)c(N)n4)CC3)n2)cc1 [Compound 266]
25 | < 1 nM | < 10 nM | 10 to 100 nM | CN1CCC[C@@H]1COc1ccc(Nc2ncnc(N3CCN(c4ncc(Cc5ccccc5)cn4)CC3)n2)cc1 [Compound 218]
26 | 1.01 to 10 nM | 11 to 100 nM | 100 to 1000 nM | Cc1cc(N2CCNCC2)ccc1Nc1ncnc(N2CCN(c3ncc(Cc4ccccc4)cn3)CC2)n1 [Compound 158]
27 | < 1 nM | 11 to 100 nM | 10 to 100 nM | c1ccc(Cc2cnc(N3CCN(c4ncnc(Nc5ccc(OC[C@H]6CCCN6)cc5)n4)CC3)nc2)cc1 [Compound 169]
28 | 1.01 to 10 nM | 11 to 100 nM | 10 to 100 nM | FC1(F)CN(Cc2cccc(Nc3ncnc(N4CCN(c5ncc(Cc6ccccc6)cn5)CC4)n3)c2)C1 [Compound 188]
29 | 1.01 to 10 nM | 100 to 1000 nM | 10 to 100 nM | OC[C@H]1CCCN1c1ccc(Nc2ncnc(N3CCN(c4ncc(Cc5ccccc5)cn4)CC3)n2)cc1 [Compound 167]
30 | < 1 nM | < 10 nM | 10 to 100 nM | COCCN1CCc2ccc(Nc3ncnc(N4CCN(c5ncc(Cc6ccccc6)cn5)CC4)n3)cc2C1 [Compound 215]
31 | 1.01 to 10 nM | 11 to 100 nM | 100 to 1000 nM | c1ccc(Cc2cnc(N3CCN(c4ncnc(Nc5cccc(CN6CCOCC6)c5)n4)CC3)nc2)cc1 [Compound 160]
32 | < 1 nM | < 10 nM | < 10 nM | OCCC1CN(c2ncnc(Nc3ccc4c(c3)CNCC4)n2)CCN1c1ncc(Cc2ccccc2)cn1 (stereo not drawn) [Compound 164]
33 | < 1 nM | < 10 nM | 10 to 100 nM | CN1CCN(c2ccc(Nc3ncnc(N4CCN(c5ncc(Cc6ccccc6)cn5)CC4)n3)cc2)CC1 [Compound 156]
34 | < 1 nM | < 10 nM | < 10 nM | CN1CCC[C@H](Oc2ccc(Nc3ncnc(N4CCN(c5ncc(Cc6ccccc6)cn5)CC4)n3)cc2)C1 [Compound 217]
35 | 1.01 to 10 nM | 11 to 100 nM | 100 to 1000 nM | CP(C)(=O)c1ccc(Nc2ncnc(N3CCN(c4ncc(Nc5ccc(F)cc5)cn4)CC3)n2)cc1 [Compound 144]
36 | < 1 nM | < 10 nM | < 10 nM | CN1CCC[C@@H]1COc1ccc(Nc2ncnc(N3CCN(c4ncc(Cc5ccccc5)c(N)n4)CC3)n2)cc1 [Compound 265]
37 | 1.01 to 10 nM | 11 to 100 nM | 10 to 100 nM | OC[C@@H]1CCCN1c1ccc(Nc2ncnc(N3CCN(c4ncc(Cc5ccccc5)cn4)CC3)n2)cc1 [Compound 168]
38 | 1.01 to 10 nM | 11 to 100 nM | 100 to 1000 nM | CS(=O)(=O)c1ccc(Nc2ncnc(N3CCN(c4ncc(Cc5ccccc5)c(O)n4)CC3)n2)cc1 [Compound 143]
39 | 1.01 to 10 nM | 100 to 1000 nM | 100 to 1000 nM | FC(F)(F)CN1CCc2ccc(Nc3ncnc(N4CCN(c5ncc(Cc6ccccc6)cn5)CC4)n3)cc2C1 [Compound 268]
